Literature values as cited in paper PMC4785407, “Reduction Impairs the Antibacterial Activity but Benefits the LPS Neutralization Ability of Human Enteric Defensin 5” (Scientific Reports, 2016).
Bridge positions count the residues as written; N and C are the ends. Peptide text beside a SMILES is read from it.

Tested on: intestinal epithelial cells
Conditions: cited from earlier work
Source text: Human defensins are also noted for their immunoregulatory properties. […] Additionally, some defensins are able to suppress the pro-inflammatory effect of bacterial lipopolysaccharide (LPS). For example, H ...

Structure (SMILES): CC[C@H](C)[C@@H]1NC(=O)[C@H](CCC(=O)O)NC(=O)[C@@H]2CSSC[C@@H]3NC(=O)[C@H](Cc4ccc(O)cc4)NC(=O)[C@@H](NC(=O)[C@@H](NC(=O)[C@H](C)N)[C@@H](C)O)CSSC[C@@H](C(=O)N[C@@H](CCCNC(=N)N)C(=O)O)NC(=O)[C@H](CSSC[C@H](NC(=O)[C@H](CCCNC(=N)N)NC(=O)CNC(=O)[C@H]([C@@H](C)O)NC(=O)[C@H](CCCNC(=N)N)NC3=O)C(=O)N[C@@H](C)C(=O)N[C@@H]([C@@H](C)O)C(=O)N[C@@H](CCCNC(=N)N)C(=O)N[C@@H](CCC(=O)O)C(=O)N[C@@H](CO)C(=O)N[C@@H](CC(C)C)C(=O)N[C@@H](CO)C(=O)NCC(=O)N[C@@H](C(C)C)C(=O)N2)NC(=O)[C@H](CC(C)C)NC(=O)[C@H](CCCNC(=N)N)NC(=O)[C@H](Cc2ccc(O)cc2)NC(=O)[C@H](CC(C)C)NC(=O)[C@H](CCCNC(=N)N)NC(=O)CNC(=O)[C@H](CO)NC1=O [HD5OX, Oxidized human defensin 5] (H-ATCYCRTGRCATRESLSGVCEISGRLYRLCCR-OH; disulfide 3-31, 5-20, 10-30; N-terminus and C-terminus assumed)
- IL-8 production: can induce the production of IL-8
